Like-named read-outs stand apart in the source and are kept apart here.
Test system: primary rat mixed cortical cells
Experiment: In vitro myelination assay (MBP positive myelin strands, fold myelin pixels above background)
Format: cell-based
Details: Rattus norvegicus; for fold induction at 1 µM: 1.0 μM compound; for fold induction at 10 µM: 10.0 μM compound
Procedure, shortened: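 Mixed cortical culture, P1 rat, 87,500-95,000 cells/well; compound present from seeding, refreshed days 6 and 10; 14 d, 37 °C, 5% CO2. Day 14: PFA fix, anti-MBP + Hoechst. Read-out: fold MBP myelin pixels over untreated, tested at 1.0 and 10.0 μM.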

[1] = read-out: Fold myelin pixels above background relative to baseline of no added compound
[2] = relative to baseline of no added compound, read-out: Fold myelin pixels above background, 1.0 μM
[3] = relative to baseline of no added compound, read-out: Fold myelin pixels above background, 10.0 μM
[4] = relative to baseline of no added compound, read-out: Fold myelin pixels above background

Structure (SMILES)	fold induction at 1 µM [1]	fold induction at 10 µM [1]	fold induction at 1 µM [2]	fold induction at 10 µM [3]	further results
CC(=O)N1CC(Oc2cc(C)c(C)c(Nc3ncn(-c4cc(F)cc(F)c4)n3)c2)C1 [Compound 971, 1-[3-[3-[[1-(3,5-difluorophenyl)-1,2,4-triazol-3-yl]amino]-4,5-dimethyl-phenoxy]azetidin-1-yl]ethanone]	1 to 10	1 to 10	–	–	–
[2H]C1([2H])N(c2cc(C)cc(Nc3ncn(-c4cc(F)cc(F)c4)n3)c2)C([2H])([2H])C([2H])([2H])N(C2CCC2)C1([2H])[2H] [Compound 994, N-[3-(4-cyclobutyl-2,2,3,3,5,5,6,6-octadeuterio-piperazin-1-yl)-5-methyl-phenyl]-1-(3,5-difluorophenyl)-1,2,4-triazol-3-amine]	1 to 10	1 to 10	–	–	–
Cc1cc(N2CCN(C3COC3)CC2)cc(Nc2ncn(-c3ccccc3)n2)c1C [Compound 237, N-[2,3-dimethyl-5-[4-(oxetan-3-yl)piperazin-1-yl]phenyl]-1-phenyl-1,2,4-triazol-3-amine]	–	–	1000 to 10000	100 to 1000	–
COc1cc(OC)cc(-n2cnc(Nc3cc(C4CC4)nc(N4CC[C@@H](F)C4)c3)n2)c1 [Compound 245, 2-cyclopropyl-N-[1-(3,5-dimethoxyphenyl)-1,2,4-triazol-3-yl]-6-[(3R)-3-fluoropyrrolidin-1-yl]pyridin-4-amine]	–	–	1 to 10	10 to 100	–
Fc1cc(F)cc(-n2cnc(Nc3cc(C4CC4)nc(N4CC[C@H](F)C4)c3)n2)c1 [Compound 332, 2-cyclopropyl-N-[1-(3,5-difluorophenyl)-1,2,4-triazol-3-yl]-6-[(3S)-3-fluoropyrrolidin-1-yl]pyridin-4-amine]	–	–	100 to 1000	10 to 100	–
Cc1cc(Nc2ncn(-c3ccc(C)c(F)c3)n2)cc(N2CCN(C3COC3)CC2)c1 [Compound 836, 1-(3-fluoro-4-methyl-phenyl)-N-[3-methyl-5-[4-(oxetan-3-yl)piperazin-1-yl]phenyl]-1,2,4-triazol-3-amine]	1 to 10	1 to 10	–	–	–
Cc1cc(Nc2ncn(-c3cccc(C(F)F)c3)n2)cc(N2CCN(C3COC3)CC2)c1 [Compound 833, 1-[3-(difluoromethyl)phenyl]-N-[3-methyl-5-[4-(oxetan-3-yl)piperazin-1-yl]phenyl]-1,2,4-triazol-3-amine]	1 to 10	≤ 1	–	–	–
[2H]C([2H])([2H])C([2H])(N1CCN(c2cc(C)cc(Nc3ncn(-c4ccccc4)n3)c2)CC1)C([2H])([2H])[2H] [Compound 1086, N-[3-methyl-5-[4-[1,2,2,2-tetradeuterio-1-(trideuteriomethyl)ethyl]piperazin-1-yl]phenyl]-1-phenyl-1,2,4-triazol-3-amine]	10 to 100	≤ 1	–	–	–
Cc1cc(Nc2ncn(-c3cc(F)cc(F)c3)n2)cc(C2CCCNC2)c1 (stereo not shown) [Compound 429, 1-(3,5-difluorophenyl)-N-[3-methyl-5-(3-piperidyl)phenyl]-1,2,4-triazol-3-amine]	–	–	–	–	fold induction at 1 µM [4]: 1000 to 10000; fold induction at 10 µM [4]: ≤ 1
Cc1cc(Nc2ncn(-c3ccccc3)n2)cc(N2CCNC(CO)C2)c1 (stereo not shown) [Compound 59, [4-[3-methyl-5-[(1-phenyl-1,2,4-triazol-3-yl)amino]phenyl]piperazin-2-yl]methanol]	–	–	100 to 1000	100 to 1000	–
Cc1cc(Nc2ncn(-c3ccccc3)n2)cc(Nc2ncn(-c3ccccc3)n2)c1 [Compound 681, 5-methyl-N1,N3-bis(1-phenyl-1,2,4-triazol-3-yl)benzene-1,3-diamine]	–	–	–	–	fold induction at 1 µM [4]: 10 to 100; fold induction at 10 µM [4]: 1 to 10
Cc1cc(Nc2ncn(-c3cc(F)cc(F)c3)n2)cc(C2(F)CCN(C3COC3)C2)c1 (stereo not shown) [Compound 193, 1-(3,5-difluorophenyl)-N-[3-[3-fluoro-1-(oxetan-3-yl)pyrrolidin-3-yl]-5-methyl-phenyl]-1,2,4-triazol-3-amine]	–	–	100 to 1000	100 to 1000	–
COCCN1CCC(Nc2cc(C)cc(Nc3ncn(-c4cc(F)cc(F)c4)n3)c2)C1 (stereo not shown) [Compound 894, N3-[1-(3,5-difluorophenyl)-1,2,4-triazol-3-yl]-N1-[1-(2-methoxyethyl)pyrrolidin-3-yl]-5-methyl-benzene-1,3-diamine]	10 to 100	≤ 1	–	–	–
[2H]C1([2H])N(CCO)C([2H])([2H])C([2H])([2H])N(c2cc(C)cc(Nc3ncn(-c4cc(F)cc(F)c4)n3)c2)C1([2H])[2H] [Compound 922, 2-[2,2,3,3,5,5,6,6-octadeuterio-4-[3-[[1-(3,5-difluorophenyl)-1,2,4-triazol-3-yl]amino]-5-methyl-phenyl]piperazin-1-yl]ethanol]	1 to 10	≤ 1	–	–	–
CCC1(O)CN(c2cc(C)cc(Nc3ncn(-c4cc(F)cc(F)c4)n3)c2)C1 [Compound 553, 1-[3-[[1-(3,5-difluorophenyl)-1,2,4-triazol-3-yl]amino]-5-methyl-phenyl]-3-ethyl-azetidin-3-ol]	–	–	–	–	fold induction at 1 µM [4]: 100 to 1000; fold induction at 10 µM [4]: 10 to 100
Cc1cc(Nc2ncn(-c3cc(F)cc(F)c3)n2)cc(N2CCN(C3CCN(C)CC3)C(C)C2)c1 (stereo not shown) [Compound 925, 1-(3,5-difluorophenyl)-N-[3-methyl-5-[3-methyl-4-(1-methyl-4-piperidyl)piperazin-1-yl]phenyl]-1,2,4-triazol-3-amine]	1 to 10	≤ 1	–	–	–
Fc1cc(F)cc(-n2cnc(Nc3cc(C4COC4)cc(N4CCN(C5COC5)CC4)c3)n2)c1 [Compound 313, 1-(3,5-difluorophenyl)-N-[3-(oxetan-3-yl)-5-[4-(oxetan-3-yl)piperazin-1-yl]phenyl]-1,2,4-triazol-3-amine]	–	–	1 to 10	100 to 1000	–
Cc1cc(Nc2ncn(-c3cccc(F)c3)n2)cc(C2CN(C3COC3)C2)c1 [Compound 36, 1-(3-fluorophenyl)-N-[3-methyl-5-[1-(oxetan-3-yl)azetidin-3-yl]phenyl]-1,2,4-triazol-3-amine]	–	–	1000 to 10000	≤ 1	–
Cc1cc(CN2CCN(C3COC3)CC2)c(F)c(Nc2ncn(-c3cc(F)cc(F)c3)n2)c1 [Compound 630, 1-(3,5-difluorophenyl)-N-[2-fluoro-5-methyl-3-[[4-(oxetan-3-yl)piperazin-1-yl]methyl]phenyl]-1,2,4-triazol-3-amine]	–	–	–	–	fold induction at 1 µM [4]: 1 to 10; fold induction at 10 µM [4]: 1 to 10
COc1cccc(-n2cnc(Nc3cc(Cl)nc(N4CCCCC4)c3)n2)c1 [Compound 106, 2-chloro-N-[1-(3-methoxyphenyl)-1,2,4-triazol-3-yl]-6-(1-piperidyl)pyridin-4-amine]	–	–	≤ 1	1 to 10	–
CCC(CNc1cc(C)cc(Nc2ncn(-c3cc(F)cc(F)c3)n2)c1)N1CCOCC1 (stereo not shown) [Compound 985, N3-[1-(3,5-difluorophenyl)-1,2,4-triazol-3-yl]-5-methyl-N1-(2-morpholinobutyl)benzene-1,3-diamine]	1 to 10	1 to 10	–	–	–
Cc1cc(Nc2ncn(-c3cccc(Cl)c3)n2)cc(N2CCN(C3COC3)CC2)c1 [Compound 397, 1-(3-chlorophenyl)-N-[3-methyl-5-[4-(oxetan-3-yl)piperazin-1-yl]phenyl]-1,2,4-triazol-3-amine]	–	–	–	–	fold induction at 1 µM [4]: 1000 to 10000; fold induction at 10 µM [4]: 100 to 1000
COCC1CCN(c2cc(C(F)F)cc(Nc3ncn(-c4cccc(C(F)(F)F)c4)n3)n2)CC1 [Compound 795, 4-(difluoromethyl)-6-[4-(methoxymethyl)-1-piperidyl]-N-[1-[3-(trifluoromethyl)phenyl]-1,2,4-triazol-3-yl]pyridin-2-amine]	1 to 10	1 to 10	–	–	–
Cc1cc(Nc2ncn(-c3cc(F)nc(F)c3)n2)cc(N2CCN(C3COC3)CC2)c1 [Compound 232, 1-(2,6-difluoro-4-pyridyl)-N-[3-methyl-5-[4-(oxetan-3-yl)piperazin-1-yl]phenyl]-1,2,4-triazol-3-amine]	–	–	10 to 100	10 to 100	–
Cc1cc(Nc2ncn(-c3cc(F)cc(F)c3)n2)cc(NC(C)CN2CCOCC2)c1 (stereo not shown) [Compound 931, N3-[1-(3,5-difluorophenyl)-1,2,4-triazol-3-yl]-5-methyl-N1-(1-methyl-2-morpholino-ethyl)benzene-1,3-diamine]	10 to 100	≤ 1	–	–	–
CCc1cc(Nc2ncn(-c3cccc(SC)c3)n2)cc(N2CCN(C3COC3)CC2)c1 [Compound 463, N-[3-ethyl-5-[4-(oxetan-3-yl)piperazin-1-yl]phenyl]-1-(3-methylsulfanylphenyl)-1,2,4-triazol-3-amine]	–	–	–	–	fold induction at 1 µM [4]: 1 to 10; fold induction at 10 µM [4]: ≤ 1
Cc1cc(Nc2ncn(-c3ccc(F)c(F)c3)n2)cc(OC2CCN(C3COC3)CC2)c1 [Compound 384, 1-(3,4-difluorophenyl)-N-[3-methyl-5-[[1-(oxetan-3-yl)-4-piperidyl]oxy]phenyl]-1,2,4-triazol-3-amine]	–	–	100 to 1000	100 to 1000	–
Cc1cc(Nc2ncn(-c3cncc(C)n3)n2)cc(N2CCN(C3CC3)CC2)c1 [Compound 420, N-[3-(4-cyclopropylpiperazin-1-yl)-5-methyl-phenyl]-1-(6-methylpyrazin-2-yl)-1,2,4-triazol-3-amine]	–	–	–	–	fold induction at 1 µM [4]: 1 to 10; fold induction at 10 µM [4]: 1 to 10
Cc1cc(Nc2ncn(-c3cccnc3)n2)cc(N2CCN(C3(C)COC3)CC2)c1 [Compound 585, N-[3-methyl-5-[4-(3-methyloxetan-3-yl)piperazin-1-yl]phenyl]-1-(3-pyridyl)-1,2,4-triazol-3-amine]	–	–	–	–	fold induction at 1 µM [4]: 10 to 100; fold induction at 10 µM [4]: 1 to 10

From patent publication US10766869B2, “Triazoles for the treatment of demyelinating dieases” (Vertex Pharmaceuticals Incorporated, priority 2015, dated 2020)
